In patent publication US11639371B2, “Peptidylic inhibitors of nucleolin (NCL) targeting CAG-repeat RNA toxicity and methods for reducing polyQ-mediated toxicity in polyQ diseases” (The Chinese University of Hong Kong, priority 2016, dated 2023):
pIC50: −log10 of the molar value. Peptide text beside a SMILES is read from it.

Tests used:
[1] = tested on: primary rat cortical neurons; assay: Cytotoxicity test on primary rat cortical neurons; details: wild-type primary rat cortical neurons
[2] = tested on: pre-45s rRNA in EGFPCAG78 RNA expressing-HEK293 cells; assay: pre-45s rRNA expression by real-time PCR in EGFPCAG78 RNA-expressing HEK293 cells; assay type: cell-based, Human; details: expanded CAG-repeat RNA-expressing HEK293 cells
Procedure: (§1) RNA was extracted from cells by Trizol reagent (Life Technologies), and 1 μg of purified RNA was then used for reverse-transcription using the ImPromII™ Reverse Transcription System (Promega). Random hexamer (Roche) was used as primers in reverse transcription. Taqman gene expression assays were performed on an ABI 7500 Real-time PCR system and data were analyzed as previously described^10. The following probes were used: pre-45s rRNA (Assay ID: AILJIZM), actin (Assay ID: Hs99999903_m1), pre-rRNA (Assay ID: AIMSG5U) and GAPDH for Drosophila (Assay ID: Dm01841186).

[3] = tested on: pre-rRNA in DsRedCAG100 flies; assay: pre-rRNA expression by real-time PCR in DsRedCAG100 flies; assay type: in vivo; details: DsRedCAG100 Drosophila model, RNA toxicity only
Procedure: as §1
(§2) For pseudopupil assay, flies were raised at 21.5° C. on cornmeal medium supplemented with dry yeast. For climbing ability assay, lifespan analysis as well as external eye assay, flies were raised at 25° C. on cornmeal medium supplemented with dry yeast. We usually feed flies at larval stage unless otherwise indicated. For larval stage treatment, third instar larvae were fed with different concentration of TAT-P3L dissolved in 2% sucrose solution for 2 h and then continued to culture in standard fly food. For adult stage treatment, 5 or 10 day-old adult flies were starved for 8 h and then fed with different concentrations of TAT-P3L dissolved in 2% sucrose solution overnight. After treatment, flies were cultured in standard fly food.

[4] = tested on: EGFPCAG78-expressing HEK293 cells; assay: LDH cytotoxicity assay, EGFPCAG78 (only RNA toxicity); assay type: cell-based, Human
Procedure: (§3) Human embryonic kidney 293 cells were seeded on a 24-well plate at a density of 0.5×10^5, and pcDNA3.1-MJDCAG27/78 or, pEGFPCAG78 or, pcDNA3.1-SCA2CAG22/72/104 or pEGFP-trHttCAG23/73/145 construct was used to transfect the cells. Lactate dehydrogenase enzyme activity in the cell culture medium was measured 72 h post-transfection and drugs treatment using the Cytotox 96 non-radioactive cytotoxicity assay (Promega).

[5] = tested on: MJDCAG78-expressing HEK293 cells; assay: LDH cytotoxicity assay, MJD disease cell model; assay type: cell-based, Human; details: MJDCAG78-expressing HEK293, CAG-repeat RNA and polyQ protein
Procedure: as §3

[6] = tested on: SCA2CAG72/104-expressing HEK293 cells; assay: LDH cytotoxicity assay, SCA2 disease cell model; assay type: cell-based, Human; details: SCA2CAG72/104-expressing HEK293, CAG-repeat RNA and polyQ protein
Procedure: as §3

[7] = tested on: trHttCAG72/145-expressing HEK293 cells; assay: LDH cytotoxicity assay, Htt disease cell model; assay type: cell-based, Human; details: trHttCAG72/145-expressing HEK293, CAG-repeat RNA and polyQ protein
Procedure: as §3

DsRedCAG100 flies = assay: Pseudopupil assay, DsRedCAG100 flies; assay type: in vivo, Drosophila
Procedure: as §2
(§4) Pseudopupil assay^18 was performed on 12 day-old adult flies except for Httexon1CAG93 which 1 day-old adult flies were used for the assay. Images were captured by SPOT Insight CCD camera controlled by the SPOT Advanced software (Diagnostic instruments Inc.). External eye assay was performed on 1 day-old adult of CTG480 flies and 2 day-old adult of CGG90 flies using an Olympus SZX-12 stereomicroscope. […] Fly climbing ability was analyzed by negative geotaxis. […] After 1 h recovery, flies were banged to the bottom, and then scored for climbing ability as the percentage of flies remaining at the bottom (<2 cm) at 25s. […]

flMJDCAG84 flies = assay: Pseudopupil assay, flMJDCAG84 flies; assay type: in vivo, Drosophila; details: MJD disease model
Procedure: as §2, §4

Httexon1CAG93 flies = assay: Pseudopupil assay, Httexon1CAG93 flies; assay type: in vivo, Drosophila; details: Htt disease model, 1 day-old adults
Procedure: as §2, §4

DsRedCAG250 flies [8] = assay: Climbing ability assay, DsRedCAG250 flies; assay type: in vivo, Drosophila
Procedure: as §2, §4

DsRedCAG250 flies [9] = assay: Lifespan analysis, DsRedCAG250 flies; assay type: in vivo, Drosophila
Procedure: as §2, §4

CTG480 flies = assay: External eye assay, CTG480 flies (Myotonic dystrophy 1); assay type: in vivo, Drosophila
Procedure: as §2, §4

CGG90 flies = assay: External eye assay, CGG90 flies (Fragile X syndrome); assay type: in vivo, Drosophila
Procedure: as §2, §4

SMILES	concentration with no observed cytotoxicity (viability not compromised) [1]	pre-45s rRNA transcription level [2]	pre-rRNA expression level [3]	suppression of EGFPCAG78 RNA-induced cell death ([4]; LDH enzyme activity, 72 h post-transfection and treatment)	pIC50 ([4]; concentration that reduced LDH enzyme activity by 50% vs untreated control, EGFPCAG78 HEK293, read-out: IC50 in inhibiting expanded CAG-repeat RNA-induced cell death)	suppression of cell death [5]	suppression of cell death [6]	suppression of cell death [7]	suppression of neurodegeneration compared with TAT-P3 (DsRedCAG100 flies; 50 uM concentration)	inhibition of neurodegeneration (retinal degeneration, pseudopupil assay) (DsRedCAG100 flies; larval feeding, 12 day-old adults)	suppression of retinal degeneration (pseudopupil assay) (flMJDCAG84 flies)	suppression of retinal degeneration (pseudopupil assay) (Httexon1CAG93 flies)	climbing ability (DsRedCAG250 flies [8]; larval treatment, 5, 10 and 15 day-old adult DsRedCAG250 flies)	climbing ability (DsRedCAG250 flies [8]; late adult stage treatment, DsRedCAG250 flies already showing degeneration)	lifespan (DsRedCAG250 flies [9])	effect on degenerative phenotype (specificity) (CTG480 flies)	effect on degenerative phenotype (specificity) (CGG90 flies)
CC[C@H](C)[C@H](NC(=O)CNC(=O)[C@H](CCCCN)NC(=O)[C@H](CO)NC(=O)[C@H](CCCCN)NC(=O)CNC(=O)[C@H](CC(=O)O)NC(=O)[C@H](CCCCN)NC(=O)[C@H](CO)NC(=O)[C@@H](NC(=O)[C@H](CC(C)C)NC(=O)[C@H](CCCNC(=N)N)NC(=O)[C@@H](NC(=O)[C@H](CCC(=O)O)NC(=O)[C@H](C)N)[C@@H](C)CC)C(C)C)C(=O)N[C@@H](C)C(=O)N[C@@H](Cc1ccc(O)cc1)C(=O)N[C@H](C(=O)N[C@@H](CCC(=O)O)C(=O)N[C@@H](Cc1ccccc1)C(=O)N[C@@H](CCCCN)C(=O)O)[C@@H](C)CC [P3L] (H-AEIRLVSKDGKSKGIAYIEFK-OH)	up to 25 μM																
CC[C@H](C)[C@H](NC(=O)CNC(=O)[C@H](CCCCN)NC(=O)[C@H](CO)NC(=O)[C@H](CCCCN)NC(=O)CNC(=O)[C@H](CC(=O)O)NC(=O)[C@H](CCCCN)NC(=O)[C@H](CO)NC(=O)[C@@H](NC(=O)[C@H](CC(C)C)NC(=O)[C@H](CCCNC(=N)N)NC(=O)[C@@H](NC(=O)[C@H](CCC(=O)O)NC(=O)[C@H](C)NC(=O)[C@H](CCCNC(=N)N)NC(=O)[C@H](CCCNC(=N)N)NC(=O)[C@H](CCCNC(=N)N)NC(=O)[C@H](CCC(N)=O)NC(=O)[C@H](CCCNC(=N)N)NC(=O)[C@H](CCCNC(=N)N)NC(=O)[C@H](CCCCN)NC(=O)[C@H](CCCCN)NC(=O)[C@H](CCCNC(=N)N)NC(=O)CNC(=O)[C@@H](N)Cc1ccc(O)cc1)[C@@H](C)CC)C(C)C)C(=O)N[C@@H](C)C(=O)N[C@@H](Cc1ccc(O)cc1)C(=O)N[C@H](C(=O)N[C@@H](CCC(=O)O)C(=O)N[C@@H](Cc1ccccc1)C(=O)N[C@@H](CCCCN)C(=O)O)[C@@H](C)CC [TAT-P3L] (H-YGRKKRRQRRRAEIRLVSKDGKSKGIAYIEFK-OH)	up to 25 μM	restore the pre-45s rRNA transcription level	restore pre-rRNA expression level	significantly suppressed	6.15	concentration-dependent suppression in cell death	concentration-dependent suppression in cell death	concentration-dependent suppression in cell death	suppressed neurodegeneration more effectively than TAT-P3	concentration-dependent inhibition of neurodegeneration	suppressed retinal degeneration	suppressed retinal degeneration	ameliorated the climbing ability	dose-dependent improvement of the climbing ability	extended the lifespan	did not mitigate the phenotypes	did not mitigate the phenotypes
